The test system of assay [1] is MV-4-11 human leukemic cell line. Briefly: In vitro antitumor activity assay (SRB), MV-4-11. The class given is cell-based. The note with it: Homo sapiens, MV4-11; MV-4-11, 72 h, Table 3. From the text:
(§1) HeLa human cervical carcinoma cell line, A-549 human non-small cell lung carcinoma cell line, NCI-H2228 human lung carcinoma cell line, NCI-H460 human lung carcinoma cell line, MDA-MB-231 human breast carcinoma cell line, MCF-7 human breast carcinoma cell line, Bel-7402 human hepatic carcinoma cell line, Hep3B human hepatic carcinoma cell line, QGY-7703 human hepatic carcinoma cell line, MV-4-11 human leukemic cell line, DAUDI human leukemic cell line, Jurkat human leukemic cell line, A498 renal carcinoma cell line, LoVo human colon carcinoma cell line, HCT1116 human colon carcinoma cell line, A431 human skin carcinoma cell line, PANC-1 human pancreatic carcinoma cell line, U87-MG human brain carcinoma cell line, SH-SY5Y human brain carcinoma cell line, RPMI-8226 human bone carcinoma cell line, HT1080 human fibrosarcoma cell line, PC-3 human prostatic carcinoma cell line, AGS human gastric adenocarcinoma cell line, and BGC-823 human gastric adenocarcinoma cell line were purchased from the Cell Bank of the Chinese Academy of Sciences.
(§2) The positive control is bufalin (formulated according to the common method), its purity is 98% or more by HPLC-UV and its structure is identified by NMR. The compounds to be tested and the positive control were diluted with normal saline with a concentration gradient of 10^−4 M, 10^−5 M, 10^−6 M, 10^−7 M and 10^−8 M.
(§3) According to cell growth rate, tumor cells in the log phase of growth were seeded into 96-well culture plates at 100 μL per well, and allowed to attach for 24 hours, followed by addition of a test compound or positive control at 10 μL per well. For each concentration, the test was carried out in triplicate wells. […] Finally, Tris solution was added at 150 μL per well, and the absorbance (A) was measured at a wavelength of 515 nm using a microplate reader. The growth inhibition on tumor cell proliferation was calculated according to the following equation:
(§4) Growth Inhibition (%)=[(Absorbance of negative control−Absorbance of blank)−(Absorbance of sample−Absorbance of blank)]/(Absorbance of negative control−Absorbance of blank)×100% […]

Assay [2] has as its system MCF-7 human breast carcinoma cell line. Briefly: In vitro antitumor activity assay (SRB), MCF-7. The note with it: Homo sapiens, MCF7; MCF-7, 72 h, Table 3; read-out: IC50 (72 h), MCF-7. The class given is cell-based.
Source text: as §1, §2
(§5) According to cell growth rate, tumor cells in the log phase of growth were seeded into 96-well culture plates at 100 μL per well, and allowed to attach for 24 hours, followed by addition of a test compound or positive control at 10 μL per well. For each concentration, the test was carried out in triplicate wells. Solvent control wells with addition of normal saline into cell culture and a blank well containing only cell culture medium but without cells for zeroing were also included. The tumor cells were incubated for 72 hours at 37° C. under 5% CO2, and then the culture medium (RPMI-1640) was removed. The cells were fixed with 10% cool TCA by incubating for 1 h at 4° C., washed with distilled water for 5 times, and dried naturally in the air. A solution of SRB (Sigma) (4 mg/mL) in 1% glacial acetic acid was added at 100 μL per well, and the cells were stained for 15 minutes at room temperature, and the supernatant was discarded. The plates were washed for 5 times with 1% acetic acid, and dried in air. Finally, Tris solution was added at 150 μL per well, and the absorbance (A) was measured at a wavelength of 515 nm using a microplate reader. The growth inhibition on tumor cell proliferation was calculated according to the following equation:
(§6) Growth Inhibition (%)=[(Absorbance of negative control−Absorbance of blank)−(Absorbance of sample−Absorbance of blank)]/(Absorbance of negative control−Absorbance of blank)×100%
(§7) Drug concentration: 10 μM, 1 μM, 0.1 μM, 10 nM, 1 nM, 0.1 nM.
(§8) IC50 was fitted by GraphPad Prism 4.

Assay [3] has as its system HCT-116 human-derived tumor cell line. The experiment in a line: In vitro antitumor activity assay (SRB), HCT-116. The class given is cell-based. The note with it: Homo sapiens; HCT-116, 72 h, Table 3.
Source text: as §1, §2, §3, §4

Assay [4] has as its system U87-MG human brain carcinoma cell line. The experiment in a line: In vitro antitumor activity assay (SRB), U87-MG. The class given is cell-based. Particulars: Homo sapiens, U-87 MG, 72 h, Table 3.
Source text: as §1, §2, §3, §4

Assay [5] has as its system RPMI-8226 human bone carcinoma cell line. The experiment in a line: In vitro antitumor activity assay (SRB), RPMI8226. The class given is cell-based. The note with it: Homo sapiens, RPMI-8226; RPMI8226, 72 h, Table 3.
Source text: as §1, §2, §3, §4

The test system of assay [6] is BGC-823 human gastric adenocarcinoma cell line. Briefly: In vitro antitumor activity assay (SRB), BGC-823. The note with it: Homo sapiens; BGC-823, 72 h, Table 3. The class given is cell-based.
Source text: as §1, §2, §3, §4

Assay [7] has as its system HeLa human cervical carcinoma cell line. The experiment in a line: In vitro antitumor activity assay (SRB), HeLa. The class given is cell-based. The note with it: read-out: IC50, inhibitory activity on cell proliferation of HeLa cell line.
Source text: as §1, §2, §5, §6, §7, §8

Assay [8] deals with DAUDI human leukemic cell line. Briefly: In vitro antitumor activity assay (SRB), Daudi. The class given is cell-based. The note with it: Homo sapiens, 72 h, Table 3.
Source text: as §1, §2, §3, §4

Assay [9] has as its system HepG2 human-derived tumor cell line. Briefly: In vitro antitumor activity assay (SRB), HepG2. The note with it: Homo sapiens; HepG2, 72 h, Table 3. The class given is cell-based.
Assay [10] has as its system PANC-1 human pancreatic carcinoma cell line. The experiment in a line: In vitro antitumor activity assay (SRB), PANC-1. The class given is cell-based. The note with it: Homo sapiens; PANC-1, 72 h, Table 3.
Source text: as §1, §2, §3, §4

In assay [11] the test system is NCI-H2228 human lung carcinoma cell line. Briefly: In vitro antitumor activity assay (SRB), NCI-H2228. The class given is cell-based. Particulars: Homo sapiens; NCI-H2228, 72 h, Table 3.
Source text: as §1, §2, §3, §4

The test system of assay [12] is QGY-7703 human hepatic carcinoma cell line. Briefly: In vitro antitumor activity assay (SRB), QGY7703. The note with it: Homo sapiens, QGY-7703; QGY7703, 72 h, Table 3. The class given is cell-based.
Source text: as §1, §2, §3, §4

Assay [13] has as its system A431 human skin carcinoma cell line. The experiment in a line: In vitro antitumor activity assay (SRB), A431. The class given is cell-based. The note with it: Homo sapiens, A-431; A431, 72 h, Table 3.
Source text: as §1, §2, §3, §4

Assay [14] deals with AGS human gastric adenocarcinoma cell line. Briefly: In vitro antitumor activity assay (SRB), AGS. The class given is cell-based. Particulars: Homo sapiens, 72 h, Table 3.
Source text: as §1, §2, §3, §4

The subject of assay [15] is A498 renal carcinoma cell line. Briefly: In vitro antitumor activity assay (SRB), A498. The class given is cell-based, human. Particulars: Homo sapiens; A498, 72 h, Table 3.
Source text: as §1, §2, §3, §4

Assay [16] relates to A-549 human non-small cell lung carcinoma cell line. The experiment in a line: In vitro antitumor activity assay (SRB), A549. The class given is cell-based. Particulars: Homo sapiens; A549, 72 h, Table 3; read-out: IC50 (72 h), A549.
Source text: as §1, §2, §5, §6, §7, §8

Assay [17] relates to HT1080 human fibrosarcoma cell line. The experiment in a line: In vitro antitumor activity assay (SRB), HT1080. Particulars: Homo sapiens, HT-1080; HT1080, 72 h, Table 3. The class given is cell-based.
Source text: as §1, §2, §3, §4

For assay [18], the system named is Jurkat human leukemic cell line. Briefly: In vitro antitumor activity assay (SRB), Jurkat. The class given is cell-based. The note with it: Homo sapiens, 72 h, Table 3.
Source text: as §1, §2, §3, §4

In assay [19] the test system is MDA-MB-231 human breast carcinoma cell line. Briefly: In vitro antitumor activity assay (SRB), MDA-MB-231. The class given is cell-based. Particulars: Homo sapiens; MDA-MB-231, 72 h, Table 3.
Source text: as §1, §2, §3, §4

Assay [20] relates to PC-3 human prostatic carcinoma cell line. Briefly: In vitro antitumor activity assay (SRB), PC-3. The class given is cell-based. Particulars: Homo sapiens, Prostatic carcinoma cell; PC-3, 72 h, Table 3; read-out: IC50 (72 h), PC-3.
Source text: as §1, §2, §5, §6, §7, §8

Assay [21] concerns Hep3B human hepatic carcinoma cell line. The experiment in a line: In vitro antitumor activity assay (SRB), Hep3B. The note with it: Homo sapiens, 72 h, Table 3. The class given is cell-based.
Source text: as §1, §2, §3, §4

Assay [22] concerns NCI-H460 human lung carcinoma cell line. The experiment in a line: In vitro antitumor activity assay (SRB), NCI-H460. The class given is cell-based. Particulars: Homo sapiens; NCI-H460, 72 h, Table 3.
Source text: as §1, §2, §3, §4

The structures appear in SMILES notation.

`C[C@]12CC[C@H](OC(=O)NC3CCNCC3)C[C@H]1CC[C@@H]1[C@@H]2CC[C@]2(C)[C@@H](c3ccc(=O)oc3)CC[C@]12O` [II1E-01]: the IC50 came to 1.12 ± 0.29 nM in assay [1]; 9.97 ± 1.45 nM in assay [2]; 2.91 ± 0.09 nM in assay [3]; 1.28 ± 0.36 nM in assay [4]; 1.53 ± 0.1 nM in assay [5]; 0.81 ± 0.07 nM in [6]. The IC50 in assay [7] is 1.4 nM; in assay [8], 2.86 ± 0.21 nM; in assay [9] it was 0.51 ± 0.04 nM; in assay [10] it was 0.72 ± 0.19 nM; in [11], 2.5 ± 0.34 nM; in assay [12] it was 1.11 ± 0.08 nM. Also, the IC50 was 2.62 ± 0.19 nM in assay [13]; 9.62 ± 0.69 nM in assay [14]; 0.4 ± 0.03 nM in [15]; 0.77 ± 0.28 nM in assay [16]; 2.9 ± 0.33 nM in [17]; 1.09 ± 0.26 nM in [18]. Also, the IC50 in assay [19] was 7.46 ± 0.33 nM; in assay [20], 0.41 ± 0.1 nM; in assay [21], more than 1000 nM; in assay [22], 0.56 ± 0.05 nM.

These data come from US20130005696A1, “BUFADIENOLIDE DERIVATIVES, PREPARING PROCESS THEREOF, COMPOSITION COMPRISING THE SAME AND THE USE THEREOF” (priority 2011, published 2013).
